According to publication PMC11106739, “Discovery and Derivatization of Tridecaptin Antibiotics with Altered Host Specificity and Enhanced Bioactivity” (ACS Chemical Biology, 2024):
≈ marks a conversion by molar mass, not a printed value. Where a SMILES comes first, the peptide text is derived from it. [ ]: non-standard residue; d: D form. The star is where a group is joined. d(aIle) = CC[C@H](C)[C@@H](N)C(=O)O; dDab = NCC[C@@H](N)C(=O)O; Octanoyl = CCCCCCCC(=O)*; Dab = NCC[C@H](N)C(=O)O

What was measured:
S. aureus 1126387 = format: cell-based, Staphylococcus aureus; details: 1126387, 20 h
Procedure: (§1) All minimum inhibitory concentrations (MICs) were determined according to the Clinical and Standards Laboratory Institute (CLSI) guidelines. In brief, agar plates were inoculated from glycerol stocks and incubated overnight at 35 °C. Peptide DMSO stocks were dispensed into 96-well round-bottom plates using a TECAN D300e dispenser. Colistin sulfate (Sigma-Aldrich) was dissolved in water and serially diluted in a cation-adjusted Mueller Hinton broth (10 μL per well). Final concentrations of the test compounds were 0.06 to 64 μg/mL. Inocula were prepared by direct colony suspension in NaCl at 0.5 MacFarland, which was further diluted 200-fold in cation-adjusted Mueller Hinton broth for a target inoculum of 2 × 10^5 colony forming units (CFUs)/mL. 100 μL portion of the prepared inoculum was added to each well of the prepared plates containing the test compounds. Plates were sealed with parafilm and incubated for 20 h at 35 °C. Images of all plates were recorded, and MIC was assessed visually.

S. aureus ATCC 29213 [1] = format: cell-based, Staphylococcus aureus; details: ATCC 29213, 20 h
Procedure: as §1

S. aureus UAMS-1625 = format: cell-based, Staphylococcus aureus; details: S. aureus UAMS-1625 (BV18); CLSI broth dilution, cation-adjusted Mueller Hinton broth, 20 h, 35 °C, read visually
Procedure: as §1

ATCC 25922 = format: cell-based, Enterococcus faecalis; details: ATCC 25922, 20 h
Procedure: as §1

E. faecalis ATCC 29212 = format: cell-based, Enterococcus faecalis; details: ATCC 29212, 20 h
Procedure: as §1

E. faecium ATCC 51559 = format: cell-based, Enterococcus faecium; details: ATCC 51559, 20 h
Procedure: as §1

E. faecium IHMA 890472 = format: cell-based, Enterococcus faecium; details: IHMA 890472, 20 h
Procedure: as §1

A. baumannii ATCC 17978 = format: cell-based, Acinetobacter baumannii; details: ATCC 17978, 20 h
Procedure: as §1

A. baumannii HUMC1 = format: cell-based, Acinetobacter baumannii; details: HUMC1, 20 h
Procedure: as §1

A. baumannii IHMA 777621 = format: cell-based, Acinetobacter baumannii; details: IHMA 777621, 20 h
Procedure: as §1

E. coli 1214245 = format: cell-based, Escherichia coli; details: 1214245, 20 h
Procedure: as §1

E. coli 1220120 = format: cell-based, Escherichia coli; details: 1220120, 20 h
Procedure: as §1

E. coli ATCC 25922 = format: cell-based, Escherichia coli; details: ATCC 25922, 20 h
Procedure: as §1

K. pneumoniae 1227947 = format: cell-based, Klebsiella pneumoniae; details: 1227947, 20 h
Procedure: as §1

K. pneumoniae 1228586 = format: cell-based, Klebsiella pneumoniae; details: 1228586, 20 h
Procedure: as §1

K. pneumoniae ATCC 13883 = format: cell-based, Klebsiella pneumoniae; details: ATCC 13883, 20 h
Procedure: as §1

P. aeruginosa 1218019 = format: cell-based, Pseudomonas aeruginosa; details: 1218019, 20 h
Procedure: as §1

P. aeruginosa 1226072 = format: cell-based, Pseudomonas aeruginosa; details: 1226072, 20 h
Procedure: as §1

P. aeruginosa PAO1 = format: cell-based, Pseudomonas aeruginosa; details: PAO1, 20 h
Procedure: as §1

S. aureus ATCC 29213 [2] = experiment: LIVE/DEAD staining (SYTO 9 / propidium iodide); format: cell-based, Staphylococcus aureus; details: S. aureus ATCC 29213, 1 × MIC, 15 min, microscopy
Procedure: This assay was performed according to a previously described procedure.[55],[56] Briefly, overnight cultures of E. coli ATCC 25922 and S. aureus ATCC 29213 were diluted to an OD600 of 0.2 in MHB and mixed with 1 × MIC of Oct-TriA1, Oct-TriA5, and Oct-TriD. Nisin and polymyxin B were used as positive controls at a concentration of 2-fold MIC. At the same time, green fluorescent nucleic acid stain SYTO 9 (excitation, 450–490 nm; emission, 500–550 nm) and red fluorescent nucleic acid stain propidium iodide (excitation, 574–599 nm; emission, 612–682 nm) (LIVE/DEAD Baclight Bacterial Viability Kit, Invitrogen) were added to the above cell suspensions. After mixing and incubating for 15 min in the dark at RT, cells were briefly sedimented via centrifugation and resuspended in fresh MHB. Then, the cell suspensions were loaded on 1.5% agarose pads and analyzed by a Zeiss Imager M2 microscope. Confocal images were obtained at 4 random locations for each sample and visualized using FIJI version 1.51H.[57]

Rabbit red blood cells = experiment: Hemolysis assay; format: cell-based; details: rabbit red blood cells in PBS, 37 °C, 1 h, absorbance at 405 nm, normalization to the Triton X-100 control; 0.25 to 128 μg/mL tested
Procedure: Peptides, dissolved in DMSO, were dispensed into 96-well round-bottom microplates using a TECAN D300e dispenser and subsequently diluted with 100 μL of PBS. PBS or 2% Triton X-100 was used as negative and positive controls, respectively. Rabbit red blood cells (BioConcept) were diluted in PBS to a final concentration of 2%, and 100 μL was added to each well of the prepared 96-well plates. The final concentration of the test compounds was 0.25 to 128 μg/mL. Plates were incubated at 37 °C for 1 h and afterward subjected to centrifugation at 1000g for 5 min. Then, 30 μL of supernatant was transferred to a new round-bottom plate, and absorbance was measured at 405 nm (TECAN Infinite F200). EC50s were calculated after blank subtraction and normalization to the Triton control.

HepG2 cells = experiment: Cytotoxicity determination (CellTiter-Glo); format: cell-based; details: HepG2, medium without serum, 24 h, normalization to the untreated control, 1 to 128 μg/mL tested
Procedure: HepG2 cells were grown in EMEM (Sigma) supplemented with 2 mM glutamine and 10% fetal bovine serum (Fisher) at 37 °C, 5% CO2. 20′000 cells per well were seeded into clear tissue culture-treated 96-well plates and incubated for 24 h. Peptides, dissolved in DMSO, were dispensed into 96 deep well plates (TECAN D300e dispenser) and diluted to a final concentration of 1 to 128 μg/mL using fresh medium without serum. The next day, the old media were removed from the cells, and 200 μL of the prepared compound dilutions was added per well. Plates were incubated for another 24 h before assessing the cell viability using the CellTiter-Glo kit (Promega) according to the manufacturer’s protocol. IC50s were calculated after normalization to the untreated control.

[3] = tested on: Gram-positive bacteria (Staphylococcus aureus, Enterococcus faecalis, Enterococcus faecium); experiment: MIC, summary over Gram-positive strains; format: cell-based; details: at a concentration of 64 μg/mL; summary of Table 2
Procedure: as §1

[4] = tested on: Gram-negative ESKAPE pathogens; format: cell-based; details: 20 h
Procedure: as §1

SMILES | MIC (S. aureus 1126387) [µg/mL] | MIC (S. aureus ATCC 29213 [1]) [µg/mL] | MIC (S. aureus UAMS-1625) [µg/mL] | MIC (ATCC 25922) [µg/mL] | MIC (E. faecalis ATCC 29212) [µg/mL] | MIC (E. faecium ATCC 51559) [µg/mL] | MIC (E. faecium IHMA 890472) [µg/mL] | MIC (A. baumannii ATCC 17978) [µg/mL] | MIC (A. baumannii HUMC1) [µg/mL] | MIC (A. baumannii IHMA 777621) [µg/mL] | MIC (E. coli 1214245) [µg/mL] | MIC (E. coli 1220120) [µg/mL] | MIC (E. coli ATCC 25922) [µg/mL] | MIC (K. pneumoniae 1227947) [µg/mL] | MIC (K. pneumoniae 1228586) [µg/mL] | MIC (K. pneumoniae ATCC 13883) [µg/mL] | MIC (P. aeruginosa 1218019) [µg/mL] | MIC (P. aeruginosa 1226072) [µg/mL] | MIC (P. aeruginosa PAO1) [µg/mL] | other results
CCCCCCCC(=O)N[C@H](Cc1ccccc1)C(=O)N[C@H](CCN)C(=O)N[C@@H](C(=O)N[C@H](CO)C(=O)N[C@H](Cc1c[nH]c2ccccc12)C(=O)N[C@@H](CO)C(=O)N[C@@H](CO)C(=O)N[C@H](CCN)C(=O)N[C@@H](Cc1c[nH]c2ccccc12)C(=O)N[C@@H](CO)C(=O)N[C@H](C(=O)N[C@@H](C(=O)N[C@@H](CCN)C(=O)O)[C@@H](C)CC)C(C)C)[C@H](C)CC [Oct-TriD] (Octanoyl-[dF][dDab][dI][dS][dW]SS[dDab]WSV[d(aIle)][Dab]-OH) | 16 (≈ 9.77 µM) | 8 (≈ 4.88 µM) | 16 (≈ 9.77 µM) | 8 (≈ 4.88 µM) | 8 (≈ 4.88 µM) | 4 (≈ 2.44 µM) | 4 (≈ 2.44 µM) | 16 (≈ 9.77 µM) | 16 (≈ 9.77 µM) | 8 (≈ 4.88 µM) | 16 (≈ 9.77 µM) | 16 (≈ 9.77 µM) | 32 (≈ 19.5 µM) | >64 | 64 (≈ 39.1 µM) | 8 (≈ 4.88 µM) | 32 (≈ 19.5 µM) | 32 (≈ 19.5 µM) | >64 | LIVE/DEAD staining, membrane integrity of S. aureus cells (S. aureus ATCC 29213 [2]): had lysed
CCCCCCCC(=O)N[C@@H](C(=O)N[C@H](CCN)C(=O)NCC(=O)N[C@H](CO)C(=O)N[C@H](Cc1c[nH]c2ccccc12)C(=O)N[C@@H](CO)C(=O)N[C@@H](CCN)C(=O)N[C@H](CCN)C(=O)N[C@@H](CO)C(=O)N[C@@H](CCC(=O)O)C(=O)N[C@H](C(=O)N[C@@H](C(=O)N[C@@H](C)C(=O)O)[C@@H](C)CC)C(C)C)C(C)C [Oct-Ser9] (Octanoyl-[dV][dDab]G[dS][dW]S[Dab][dDab]SEV[d(aIle)]A-OH) | >64 | >64 | >64 | >64 | >64 | >64 | >64 | >64 | >64 | >64 | 64 (≈ 43.8 µM) | 32 (≈ 21.9 µM) | 32 (≈ 21.9 µM) | >64 | 8 (≈ 5.48 µM) | 64 (≈ 43.8 µM) | 32 (≈ 21.9 µM) | 32 (≈ 21.9 µM) | >64 | Hemolysis EC50 (Rabbit red blood cells): >128 µg/mL; IC50 on HepG2 w/o FCS (HepG2 cells): >128 µg/mL; antibacterial activity against Gram-positive bacteria [3]: no antibacterial activity; MICs, range over Gram-negative pathogens [4]: 8 to 64 µg/mL
